# Legend:
# [1] = tested on: relapsed and refractory CLL patients; assay: Phase I dose escalation: clinical response and PFS; type: in vivo, human
# XIAP = assay: Western blot protein expression in patient samples; type: in vivo, human; conditions: 2 and 4 hours of treatment vs pretreatment
# MCL-1 = assay: Western blot protein expression in patient samples; type: in vivo, human; conditions: 2 and 4 hours of treatment vs pretreatment, P<0.0001
# [2] = tested on: relapsed and refractory CLL patients; assay: Phase I dose escalation: toxicity and tolerability; type: in vivo, human
# CLL cells = conditions: pre-clinical; cited from earlier work
# [3] = treatment related, all cohorts, N=52
smiles,measurement,setting,value
CCc1cnn2c(NCc3ccc[n+]([O-])c3)cc(N3CCCC[C@H]3CCO)nc12 [Dinaciclib],No (%) of Responders,"[1]; 14 mg/mg/m^2 dosing during treatment, 35 pts",22 (63) No (%)
same,response rate,[1]; 21 patients without del(17)(p13.1),57%
same,response rate,[1]; 25 patients with del(17)(p13.1),56%
same,95% confidence interval of response rate,[1]; 35 patients at phase 2 dose of 14 mg/m^2,47–79%
same,No (%) of Responders,"[1]; Total, 52 pts",28 (54) No (%)
same,overall response to therapy,"[1]; all 52 patients, IWCLL 2008 partial responses",54%
same,complete responses,[1]; all patients,no complete responses
same,patients off therapy for progression of disease,[1]; all patients,27%
same,median progression free survival,"[1]; all patients, Kaplan-Meier estimate",481 days
same,median time to response (range),[1]; all responders,85 (27–244) days
same,response rate,[1]; bulky disease,52%
same,No (%) of Responders,"[1]; dose level 5 mg/m^2, 4 pts",1 (25) No (%)
same,No (%) of Responders,"[1]; dose level 10 mg/m^2, 3 pts",2 (67) No (%)
same,No (%) of Responders,"[1]; dose level 14 mg/m^2, 16 pts",11 (69) No (%)
same,No (%) of Responders,"[1]; dose level 17 mg/m^2, 4 pts",1 (25) No (%)
same,No (%) of Responders,"[1]; dose level 10→14 mg/m^2, 6 pts",4 (67) No (%)
same,response rate,[1]; non-bulky (< 5 cm nodes) disease,71%
same,response rate,[1]; prior flavopiridol exposure,38%
same,response rate,"[1]; recommended phase II dose (14 mg/m^2) at the final dose, 35 patients",63%
same,XIAP protein level,XIAP,no significant change
same,MCL-1 protein expression,MCL-1,significantly reduced expression
same,maximally tolerated dose,[2]; 2 hour infusion weekly x 3 of every 4 weeks,14 mg/m^2
same,other patients who discontinued therapy due to toxicity,[2]; all patients,Five
same,patients off therapy for adverse events,[2]; all patients,10%
same,deaths within 30 days of last dose,"[2]; all patients, two due to disease progression",3
same,No Pts with Dose Reduction,[2]; cohort 5 mg/m^2,0
same,Pts with DLT,[2]; cohort 5 mg/m^2,0
same,No Pts with Dose Reduction,[2]; cohort 7 mg/m^2,0
same,Pts with DLT,[2]; cohort 7 mg/m^2,1
same,No Pts with Dose Reduction,[2]; cohort 10 mg/m^2,1
same,Pts with DLT,[2]; cohort 10 mg/m^2,0
same,No Pts with Dose Reduction,[2]; cohort 14 mg/m^2,5
same,Pts with TLS,[2]; cohort 14 mg/m^2,4
same,Pts with TLS (Dialysis),"[2]; cohort 14 mg/m^2, requiring dialysis",1
same,No Pts with Dose Reduction,[2]; cohort 17 mg/m^2,1
same,Pts with TLS,[2]; cohort 17 mg/m^2,1 (1)
same,Pts with TLS (Dialysis),"[2]; cohort 17 mg/m^2, requiring dialysis",1 (1)
same,No Pts with Dose Reduction,[2]; cohort 7→10→14 mg/m^2,1
same,Pts with TLS,[2]; cohort 7→10→14 mg/m^2,1 (1)
same,No Pts with Dose Reduction,[2]; cohort 10→14 mg/m^2,1
same,Pts with TLS,[2]; cohort 10→14 mg/m^2,2
same,"Anemia, Grade 1",[2]; [3],8 (15) No (%)
same,"Anemia, Grade 2",[2]; [3],17 (33) No (%)
same,"Anemia, Grade 3",[2]; [3],14 (27) No (%)
same,"Anemia, Grade 4",[2]; [3],1 (2) No (%)
same,"Anemia, Total",[2]; [3],40 (77) No (%)
same,"Constipation, Grade 1",[2]; [3],4 (8) No (%)
same,"Constipation, Grade 2",[2]; [3],1 (2) No (%)
same,"Constipation, Grade 3",[2]; [3],1 (2) No (%)
same,"Constipation, Grade 4",[2]; [3],0 (0) No (%)
same,"Constipation, Total",[2]; [3],6 (12) No (%)
same,"Cytokine release, Grade 1",[2]; [3],1 (2) No (%)
same,"Cytokine release, Grade 2",[2]; [3],6 (12) No (%)
same,"Cytokine release, Grade 3",[2]; [3],1 (2) No (%)
same,"Cytokine release, Grade 4",[2]; [3],0 (0) No (%)
same,"Cytokine release, Total",[2]; [3],8 (15) No (%)
same,"Diarrhea, Grade 1",[2]; [3],14 (27) No (%)
same,"Diarrhea, Grade 2",[2]; [3],7 (13) No (%)
same,"Diarrhea, Grade 3",[2]; [3],2 (4) No (%)
same,"Diarrhea, Grade 4",[2]; [3],0 (0) No (%)
same,"Diarrhea, Total",[2]; [3],23 (44) No (%)
same,"Fatigue, Grade 1",[2]; [3],7 (13) No (%)
same,"Fatigue, Grade 2",[2]; [3],8 (15) No (%)
same,"Fatigue, Grade 3",[2]; [3],2 (4) No (%)
same,"Fatigue, Grade 4",[2]; [3],0 (0) No (%)
same,"Fatigue, Total",[2]; [3],17(33) No (%)
same,"Herpes infection, Grade 1",[2]; [3],2 (4) No (%)
same,"Herpes infection, Grade 2",[2]; [3],1 (2) No (%)
same,"Herpes infection, Grade 3",[2]; [3],0 (0) No (%)
same,"Herpes infection, Grade 4",[2]; [3],0 (0) No (%)
same,"Herpes infection, Total",[2]; [3],3 (6) No (%)
same,"Hyperglycemia, Grade 1",[2]; [3],8 (15) No (%)
same,"Hyperglycemia, Grade 2",[2]; [3],16 (31) No (%)
same,"Hyperglycemia, Grade 3",[2]; [3],11 (21) No (%)
same,"Hyperglycemia, Grade 4",[2]; [3],0 (0) No (%)
same,"Hyperglycemia, Total",[2]; [3],35 (67) No (%)
same,"Hyperkalemia, Grade 1",[2]; [3],7 (13) No (%)
same,"Hyperkalemia, Grade 2",[2]; [3],3 (6) No (%)
same,"Hyperkalemia, Grade 3",[2]; [3],3 (6) No (%)
same,"Hyperkalemia, Grade 4",[2]; [3],3 (6) No (%)
same,"Hyperphosphatemia, Grade 1",[2]; [3],6 (12) No (%)
same,"Hyperphosphatemia, Grade 2",[2]; [3],1 (2) No (%)
same,"Hyperphosphatemia, Grade 3",[2]; [3],0 (0) No (%)
same,"Hyperphosphatemia, Grade 4",[2]; [3],0 (0) No (%)
same,"Hyperphosphatemia, Total",[2]; [3],7 (13) No (%)
same,"Hypoalbuminemia, Grade 1",[2]; [3],12 (23) No (%)
same,"Hypoalbuminemia, Grade 2",[2]; [3],3 (6) No (%)
same,"Hypoalbuminemia, Grade 3",[2]; [3],0 (0) No (%)
same,"Hypoalbuminemia, Grade 4",[2]; [3],0 (0) No (%)
same,"Hypoalbuminemia, Total",[2]; [3],15 (29) No (%)
same,"Hypocalcemia, Grade 1",[2]; [3],17 (33) No (%)
same,"Hypocalcemia, Grade 2",[2]; [3],1 (2) No (%)
same,"Hypocalcemia, Grade 3",[2]; [3],9 (17) No (%)
same,"Hypocalcemia, Grade 4",[2]; [3],0 (0) No (%)
same,"Hypocalcemia, Total",[2]; [3],27 (52) No (%)
same,"Hypokalemia, Grade 1",[2]; [3],17 (33) No (%)
same,"Hypokalemia, Grade 2",[2]; [3],1 (2) No (%)
same,"Hypokalemia, Grade 3",[2]; [3],9 (17) No (%)
same,"Hypokalemia, Grade 4",[2]; [3],0 (0) No (%)
same,"Hypokalemia, Total",[2]; [3],27 (52) No (%)
same,"Hyponatremia, Grade 1",[2]; [3],18 (35) No (%)
same,"Hyponatremia, Grade 2",[2]; [3],0 (0) No (%)
same,"Hyponatremia, Grade 3",[2]; [3],1 (2) No (%)
same,"Hyponatremia, Grade 4",[2]; [3],0 (0) No (%)
same,"Hyponatremia, Total",[2]; [3],19 (37) No (%)
same,"Hypophosphatemia, Grade 1",[2]; [3],6 (12) No (%)
same,"Hypophosphatemia, Grade 2",[2]; [3],5 (10) No (%)
same,"Hypophosphatemia, Grade 3",[2]; [3],6 (12) No (%)
same,"Hypophosphatemia, Grade 4",[2]; [3],1 (2) No (%)
same,"Hypophosphatemia, Total",[2]; [3],18 (35) No (%)
same,"Increased ALT, Grade 1",[2]; [3],6 (12) No (%)
same,"Increased ALT, Grade 2",[2]; [3],9 (17) No (%)
same,"Increased ALT, Grade 3",[2]; [3],5 (10) No (%)
same,"Increased ALT, Grade 4",[2]; [3],0 (0) No (%)
same,"Increased ALT, Total",[2]; [3],20 (38) No (%)
same,"Increased AST, Grade 1",[2]; [3],11 (21) No (%)
same,"Increased AST, Grade 2",[2]; [3],8 (15) No (%)
same,"Increased AST, Grade 3",[2]; [3],13 (25) No (%)
same,"Increased AST, Grade 4",[2]; [3],2 (4) No (%)
same,"Increased AST, Total",[2]; [3],34 (65) No (%)
same,"Increased Alkaline Phosphatase, Grade 1",[2]; [3],8 (15) No (%)
same,"Increased Alkaline Phosphatase, Grade 2",[2]; [3],1 (2) No (%)
same,"Increased Alkaline Phosphatase, Grade 3",[2]; [3],0 (0) No (%)
same,"Increased Alkaline Phosphatase, Grade 4",[2]; [3],0 (0) No (%)
same,"Increased Alkaline Phosphatase, Total",[2]; [3],9 (17) No (%)
same,"Increased bilirubin, Grade 1",[2]; [3],5 (10) No (%)
same,"Increased bilirubin, Grade 2",[2]; [3],0 (0) No (%)
same,"Increased bilirubin, Grade 3",[2]; [3],0 (0) No (%)
same,"Increased bilirubin, Grade 4",[2]; [3],0 (0) No (%)
same,"Increased bilirubin, Total",[2]; [3],5 (10) No (%)
same,"Increased creatinine, Grade 1",[2]; [3],11 (21) No (%)
same,"Increased creatinine, Grade 2",[2]; [3],3 (6) No (%)
same,"Increased creatinine, Grade 3",[2]; [3],0 (0) No (%)
same,"Increased creatinine, Grade 4",[2]; [3],0 (0) No (%)
same,"Increased creatinine, Total",[2]; [3],14 (27) No (%)
same,"Nausea, Grade 1",[2]; [3],10 (19) No (%)
same,"Nausea, Grade 2",[2]; [3],3 (6) No (%)
same,"Nausea, Grade 3",[2]; [3],0 (0) No (%)
same,"Nausea, Grade 4",[2]; [3],0 (0) No (%)
same,"Nausea, Total",[2]; [3],13 (25) No (%)
same,"Neutropenia, Grade 1",[2]; [3],3 (6) No (%)
same,"Neutropenia, Grade 2",[2]; [3],2 (4) No (%)
same,"Neutropenia, Grade 4",[2]; [3],28 (54) No (%)
same,"Neutropenia, Total",[2]; [3],44 (85) No (%)
same,"Pharyngitis/sinusitis/respiratory infection, Grade 1",[2]; [3],2 (4) No (%)
same,"Pharyngitis/sinusitis/respiratory infection, Grade 2",[2]; [3],2 (4) No (%)
same,"Pharyngitis/sinusitis/respiratory infection, Grade 3",[2]; [3],0 (0) No (%)
same,"Pharyngitis/sinusitis/respiratory infection, Grade 4",[2]; [3],0 (0) No (%)
same,"Pharyngitis/sinusitis/respiratory infection, Total",[2]; [3],4 (8) No (%)
same,"Pneumonia, Grade 1",[2]; [3],0 (0) No (%)
same,"Pneumonia, Grade 2",[2]; [3],0 (0) No (%)
same,"Pneumonia, Grade 3",[2]; [3],2 (4) No (%)
same,"Pneumonia, Total",[2]; [3],2 (4) No (%)
same,"Sepsis, Grade 1",[2]; [3],0 (0) No (%)
same,"Sepsis, Grade 2",[2]; [3],0 (0) No (%)
same,"Sepsis, Grade 3",[2]; [3],1 (2) No (%)
same,"Sepsis, Grade 4",[2]; [3],0 (0) No (%)
same,"Sepsis, Total",[2]; [3],1 (2) No (%)
same,"Thrombocytopenia, Grade 1",[2]; [3],10 (19) No (%)
same,"Thrombocytopenia, Grade 2",[2]; [3],6 (12) No (%)
same,"Thrombocytopenia, Grade 3",[2]; [3],11 (21) No (%)
same,"Thrombocytopenia, Grade 4",[2]; [3],10 (19) No (%)
same,"Thrombocytopenia, Total",[2]; [3],37 (71) No (%)
same,"Tumor lysis syndrome, Grade 1",[2]; [3],0 (0) No (%)
same,"Tumor lysis syndrome, Grade 2",[2]; [3],0 (0) No (%)
same,"Tumor lysis syndrome, Grade 3",[2]; [3],7 (13) No (%)
same,"Tumor lysis syndrome, Grade 4",[2]; [3],1 (2) No (%)
same,"Tumor lysis syndrome, Total",[2]; [3],8 (15) No (%)
same,"Urosepsis, Grade 1",[2]; [3],0 (0) No (%)
same,"Urosepsis, Grade 2",[2]; [3],0 (0) No (%)
same,"Urosepsis, Grade 3",[2]; [3],0 (0) No (%)
same,"Urosepsis, Grade 4",[2]; [3],1 (2) No (%)
same,"Urosepsis, Total",[2]; [3],1 (2) No (%)
same,therapeutic efficacy against CLL cells as compared to flavopiridol,CLL cells,improved therapeutic efficacy
